Reference: paper PMC6680840 (Molecules, 2019)
Values joined by “and” are separate entries in the source; they are usually repeats but may differ in a detail not shown here. Identical values can stand only once.

Experiments:
[1] = biological target: T1, AChE (from human erythrocyte) (Homo sapiens, UniProt P22303); assay: biochemical; conditions: for AChE IR (%) inhibition ratio: at 50 μM; for IC50: mean ± SD of three separate experiments
T1 construct: AChE (EC 3.1.1.8, from human erythrocyte); purchased Sigma-Aldrich (St. Louis, MO, USA); host or cells: human erythrocyte
T1 sequence (P22303 other isoform, or with tags, fused parts or gaps): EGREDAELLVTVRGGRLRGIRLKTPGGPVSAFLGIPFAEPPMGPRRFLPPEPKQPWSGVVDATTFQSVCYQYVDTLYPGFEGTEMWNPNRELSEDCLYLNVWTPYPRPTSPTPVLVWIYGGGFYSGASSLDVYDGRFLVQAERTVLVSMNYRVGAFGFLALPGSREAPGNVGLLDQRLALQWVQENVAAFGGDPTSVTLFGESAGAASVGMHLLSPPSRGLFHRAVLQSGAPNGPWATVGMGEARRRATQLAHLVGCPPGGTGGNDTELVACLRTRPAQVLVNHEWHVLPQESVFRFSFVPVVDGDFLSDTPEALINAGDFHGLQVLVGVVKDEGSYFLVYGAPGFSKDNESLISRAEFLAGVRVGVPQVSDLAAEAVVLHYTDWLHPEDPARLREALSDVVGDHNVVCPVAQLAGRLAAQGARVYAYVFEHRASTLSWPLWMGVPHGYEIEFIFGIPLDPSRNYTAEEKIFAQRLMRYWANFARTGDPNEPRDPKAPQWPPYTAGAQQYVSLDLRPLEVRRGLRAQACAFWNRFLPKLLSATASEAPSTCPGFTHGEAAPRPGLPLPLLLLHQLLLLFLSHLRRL
Method: (§1) BChE (EC 3.1.1.8, from human serum), AChE (EC […]), butyrylthiocholine (BUC) iodide, and acetylthiocholine (ATC) iodide were purchased from Sigma-Aldrich (St. Louis, MO, USA). Enzyme was dissolved and pre-prepared at 2.0 U/mL. 10 μL of enzyme, 20 μL of 0.01 M 5,5′-dithiobis(2-nitrobenzoic acid), 10 μL of tested compound, and 40 μL of PBS were pre-incubated together for 5 min. Io initiate the reaction, 20 μL of 0.01 M BUC or ATC was added. The activity was determined by measuring the increase in absorbance at 410 nm at 37 °C in 2 min intervals using Tecan Spark multimode microplate reader (Mannedorf, Switzerland). The percentage of inhibition (I) was calculated according to the formula: I = (Ac − Ai)/Ac × 100%, with Ai and Ac representing the change in the absorbance in the presence of an inhibitor and without an inhibitor, respectively.

[2] = biological target: T2, BChE (EC 3.1.1.8, from human serum) (Homo sapiens, UniProt P06276); assay: biochemical; conditions: for BChE IR (%) inhibition ratio: at 50 μM; for IC50: mean ± SD of three separate experiments
T2 construct: BChE (EC 3.1.1.8, from human serum); purchased Sigma-Aldrich (St. Louis, MO, USA); host or cells: human serum
T2 sequence (P06276 29-602): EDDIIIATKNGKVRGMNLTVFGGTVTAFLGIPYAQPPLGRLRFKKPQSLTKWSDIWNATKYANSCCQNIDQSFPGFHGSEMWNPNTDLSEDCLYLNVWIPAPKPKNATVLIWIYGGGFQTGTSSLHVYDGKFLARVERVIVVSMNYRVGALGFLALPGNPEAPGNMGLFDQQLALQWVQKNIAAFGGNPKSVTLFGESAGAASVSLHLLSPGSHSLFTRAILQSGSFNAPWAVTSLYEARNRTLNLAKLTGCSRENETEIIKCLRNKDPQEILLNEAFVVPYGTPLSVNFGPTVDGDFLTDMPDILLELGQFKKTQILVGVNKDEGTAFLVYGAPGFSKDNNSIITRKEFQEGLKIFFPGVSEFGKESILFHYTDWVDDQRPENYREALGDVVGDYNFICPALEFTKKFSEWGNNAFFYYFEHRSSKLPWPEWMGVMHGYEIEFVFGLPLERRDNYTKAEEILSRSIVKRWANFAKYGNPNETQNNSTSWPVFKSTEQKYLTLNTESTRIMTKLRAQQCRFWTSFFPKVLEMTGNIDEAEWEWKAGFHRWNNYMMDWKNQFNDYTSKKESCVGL
Method: as §1

Compound | AChE IR (%) inhibition ratio [1] [%] | BChE IR (%) inhibition ratio [2] [%] | IC50 [2] | IC50 [1] [µM]
O=C(Nc1ccccc1F)c1ccc(CN2CCc3ccccc3C2)cc1 [Compound 16, 4-((3,4-dihydroisoquinolin-2(1H)-yl)methyl)-N-(2-fluorophenyl)benzamide] | 2.1 | 74.7 | 6.9 µM and 6.93 µM | 
CCN(CC)CCNC(=O)c1ccc(CN2CCc3ccccc3C2)cc1 [Compound 1, N-(2-(diethylamino)ethyl)-4-((3,4-dihydroisoquinolin-2(1H)-yl)methyl)benzamide] | 26.6 | 68.4 | 17.9 µM | > 50
O=C(c1ccc(CN2CCc3ccccc3C2)cc1)N1CCOCC1 [Compound 10, (4-((3,4-dihydroisoquinolin-2(1H)-yl)methyl)phenyl)(morpholino)methanone] | 3.4 | 11.2 |  | 
O=C(NCCc1c[nH]c2ccccc12)c1ccc(CN2CCc3ccccc3C2)cc1 [Compound 28, N-(2-(1H-indol-3-yl)ethyl)-4-((3,4-dihydroisoquinolin-2(1H)-yl)methyl)benzamide] | 8.4 | 1.3 |  | 
O=C(Nc1ccc(F)cc1)c1ccc(CN2CCc3ccccc3C2)cc1 [Compound 18, 4-((3,4-dihydroisoquinolin-2(1H)-yl)methyl)-N-(4-fluorophenyl)benzamide] | 7.0 | 14.1 |  | 
COc1cc2c(cc1OC)CN(Cc1ccc(C(=O)N3CCCC3)cc1)CC2 [Compound 14, (4-((6,7-dimethoxy-3,4-dihydroisoquinolin-2(1H)-yl)methyl)phenyl)(pyrrolidin-1-yl)methanone] |  |  |  | 18.2 ± 0.86
O=C(NNc1ccc(F)cc1)c1ccc(CN2CCc3ccccc3C2)cc1 [Compound 20, 4-((3,4-dihydroisoquinolin-2(1H)-yl)methyl)-N2019-(4-fluorophenyl)benzohydrazide] | 21.8 | 13.2 |  | 
O=C(Sc1ccccc1Br)c1ccc(CN2CCc3ccccc3C2)cc1 [Compound 27, S-(2-bromophenyl) 4-((3,4-dihydroisoquinolin-2(1H)-yl)methyl)benzothioate] | 22.8 | 1.5 |  | 
O=C(c1ccc(CN2CCc3ccc(Br)cc3C2)cc1)N1CCCC1 [Compound 12, (4-((7-bromo-3,4-dihydroisoquinolin-2(1H)-yl)methyl)phenyl)(pyrrolidin-1-yl)methanone] |  |  | 39.4 ± 2.25 µM | > 50
O=C(NCCN1CCCC1)c1ccc(CN2CCc3ccccc3C2)cc1 [Compound 7, 4-((3,4-dihydroisoquinolin-2(1H)-yl)methyl)-N-(2-(pyrrolidin-1-yl)ethyl)benzamide] | 4.4 |  | 15.2 ± 2.33 µM | 
O=C(Nc1ccc(Br)cc1)c1ccc(CN2CCc3ccccc3C2)cc1 [Compound 25, N-(4-bromophenyl)-4-((3,4-dihydroisoquinolin-2(1H)-yl)methyl)benzamide] | 40.6 | 8.1 |  | 
O=C(Nc1ccccc1)c1ccc(CN2CCc3ccccc3C2)cc1 [Compound 15, 4-((3,4-dihydroisoquinolin-2(1H)-yl)methyl)-N-phenylbenzamide] | 8 | 23.7 |  | 
O=C(Nc1cccc(Br)c1)c1ccc(CN2CCc3ccccc3C2)cc1 [Compound 24, N-(3-bromophenyl)-4-((3,4-dihydroisoquinolin-2(1H)-yl)methyl)benzamide] | 21.6 | 35.1 |  | 
O=C(NCCN1CCOCC1)c1ccc(CN2CCc3ccccc3C2)cc1 [Compound 6, 4-((3,4-dihydroisoquinolin-2(1H)-yl)methyl)-N-(2-morpholinoethyl)benzamide] | 13.4 | 19.1 |  | 
Cc1ccc2[nH]cc(CCNC(=O)c3ccc(CN4CCc5ccccc5C4)cc3)c2c1 [Compound 29, 4-((3,4-dihydroisoquinolin-2(1H)-yl)methyl)-N-(2-(5-methyl-1H-indol-3-yl)ethyl)benzamide] | 4.6 | 6.5 |  | 
O=C(c1ccc(CN2CCc3cc(Br)ccc3C2)cc1)N1CCCC1 [Compound 11, (4-((6-bromo-3,4-dihydroisoquinolin-2(1H)-yl)methyl)phenyl)(pyrrolidin-1-yl)methanone] |  |  | 8.38 ± 0.65 µM | 30.6 ± 1.82
COc1ccc2[nH]cc(CCNC(=O)c3ccc(CN4CCc5ccccc5C4)cc3)c2c1 [Compound 30, 4-((3,4-dihydroisoquinolin-2(1H)-yl)methyl)-N-(2-(5-methoxy-1H-indol-3-yl)ethyl)benzamide] | 8.3 | 1.1 |  | 
COc1ccc2c(c1)CCN(Cc1ccc(C(=O)N3CCCC3)cc1)C2 [Compound 13, (4-((6-methoxy-3,4-dihydroisoquinolin-2(1H)-yl)methyl)phenyl)(pyrrolidin-1-yl)methanone] |  |  | 12.6 ± 0.88 µM | 12.1 ± 0.9
O=C(Oc1ccccc1Br)c1ccc(CN2CCc3ccccc3C2)cc1 [Compound 26, 2-bromophenyl 4-((3,4-dihydroisoquinolin-2(1H)-yl)methyl)benzoate] | 26.2 | 11 |  | 
CCNCCNC(=O)c1ccc(CN2CCc3ccccc3C2)cc1 [Compound 4, 4-((3,4-dihydroisoquinolin-2(1H)-yl)methyl)-N-(2-(ethylamino)ethyl)benzamide] | 8.8 | 27.2 |  | 
CCN1CCCC1CNC(=O)c1ccc(CN2CCc3ccccc3C2)cc1 (stereo not drawn) [Compound 8, 4-((3,4-dihydroisoquinolin-2(1H)-yl)methyl)-N-((1-ethylpyrrolidin-2-yl)methyl)benzamide] | 13.3 | 63.0 | 25 ± 1.27 µM | 
CN(C)CCNC(=O)c1ccc(CN2CCc3ccccc3C2)cc1 [Compound 3, 4-((3,4-dihydroisoquinolin-2(1H)-yl)methyl)-N-(2-(dimethylamino)ethyl)benzamide] | 11.4 | 36.9 |  | 
COC(CNC(=O)c1ccc(CN2CCc3ccccc3C2)cc1)OC [Compound 5, 4-((3,4-dihydroisoquinolin-2(1H)-yl)methyl)-N-(2,2-dimethoxyethyl)benzamide] | 2.7 | 56.6 | 38.1 ± 1.68 µM | 
O=C(Nc1cccc(F)c1)c1ccc(CN2CCc3ccccc3C2)cc1 [Compound 17, 4-((3,4-dihydroisoquinolin-2(1H)-yl)methyl)-N-(3-fluorophenyl)benzamide] | 7.7 | 10.0 |  | 
O=C(Nc1ccc(Br)cc1F)c1ccc(CN2CCc3ccccc3C2)cc1 [Compound 22, N-(4-bromo-2-fluorophenyl)-4-((3,4-dihydroisoquinolin-2(1H)-yl)methyl)benzamide] | 28.3 | 15.4 |  | 
CC(C)N(CCNC(=O)c1ccc(CN2CCc3ccccc3C2)cc1)C(C)C [Compound 2, 4-((3,4-dihydroisoquinolin-2(1H)-yl)methyl)-N-(2-(diisopropylamino)ethyl)benzamide] | 56.1 | 76.4 | 9.98 ± 0.89 µM | 21.5 ± 0.98
O=C(NCc1ccc(F)cc1)c1ccc(CN2CCc3ccccc3C2)cc1 [Compound 19, 4-((3,4-dihydroisoquinolin-2(1H)-yl)methyl)-N-(4-fluorobenzyl)benzamide] | 2.3 | 83.9 | 14.8 ± 0.58 µM | 
O=C(Nc1ccc(Cl)cc1F)c1ccc(CN2CCc3ccccc3C2)cc1 [Compound 21, N-(4-chloro-2-fluorophenyl)-4-((3,4-dihydroisoquinolin-2(1H)-yl)methyl)benzamide] | 5 | 38.6 |  | 
